Experimental data reported in PubChem BioAssay AID328 (DTP/NCI, 2004).
“And” between values parts separate entries of the source, which are not always exact repeats. Identical values can stand only once. Inconclusive results and toxic doses are left out. The calls were made as follows: active = survival T/C of 150% or more; inactive = T/C below 125% in these data.

Tested on: BDF1 mice, P388 leukemia ip, median survival T/C
Experiment: NCI In Vivo Anticancer Drug Screen. Data for tumor model P388 Leukemia (intraperitoneal) in B6D2F1 (BDF1) mice
Conditions: endpoint: median survival time, higher = longer survival
How it was run: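 Transplantable tumour in mice; compound vs vehicle dosing; survival scored; ratio of treated to control reported.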

[1] = dose: 50.0 mg/kg/injection, schedule: Q01DX009 (ip), vehicle: saline with Tween-80
[2] = dose: 100.0 mg/kg/injection, schedule: Q01DX009 (ip), vehicle: saline with Tween-80
[3] = dose: 200.0 mg/kg/injection, schedule: Q01DX009 (ip), vehicle: saline with Tween-80
[4] = dose: 100.0 mg/kg/injection, schedule: Q01DX009 (ip), vehicle: Klucel (hydroxypropylcellulose) (HPC)
[5] = dose: 100.0 mg/kg/injection, schedule: Q04DX003 (ip), vehicle: Klucel (hydroxypropylcellulose) (HPC)
[6] = dose: 200.0 mg/kg/injection, schedule: Q01DX009 (ip), vehicle: Klucel (hydroxypropylcellulose) (HPC)
[7] = dose: 200.0 mg/kg/injection, schedule: Q04DX003 (ip), vehicle: Klucel (hydroxypropylcellulose) (HPC)
[8] = dose: 400.0 mg/kg/injection, schedule: Q01DX009 (ip), vehicle: Klucel (hydroxypropylcellulose) (HPC)
[9] = dose: 400.0 mg/kg/injection, schedule: Q04DX003 (ip), vehicle: Klucel (hydroxypropylcellulose) (HPC)
[10] = dose: 6.25 mg/kg/injection, schedule: Q01DX009 (ip), vehicle: saline
[11] = dose: 12.5 mg/kg/injection, schedule: Q01DX009 (ip), vehicle: saline
[12] = dose: 25.0 mg/kg/injection, schedule: Q01DX009 (ip), vehicle: saline
[13] = dose: 50.0 mg/kg/injection, schedule: Q01DX009 (ip), vehicle: saline
[14] = dose: 25.0 mg/kg/injection, schedule: Q01DX009 (ip), vehicle: Klucel (hydroxypropylcellulose) (HPC)

Measured: T/C

C(=C\C1CC2CCCN2O1)/c1ccccc1 (centres undefined)
inactive: dose: 25.0 mg/kg/injection, schedule: Q01DX009 (ip), vehicle: saline with Tween-80 100 % of control | [1] 102 % of control and 105 % of control | [2] 100 % of control | [3] 98 % of control and 102 % of control

CC(Oc1cc(Cl)ccc1Cl)C(=O)O (centres undefined)
inactive: [4] 90 % of control | [5] 100 % of control | [6] 100 % of control | [7] 104 % of control | [8] 113 % of control | [9] 108 % of control

CCCCC(C)C(=O)CC(SCC)c1ccc(Cl)c(Cl)c1 (centres undefined)
inactive: [1] 99 % of control | [2] 99 % of control | [3] 96 % of control

Cc1ccc(Cl)cc1NC(=O)c1ccccc1C(=O)O
inactive: [5] 91 % of control | [7] 95 % of control | [9] 91 % of control

Oc1ccc(Cl)c2cccnc12
inactive: dose: 12.5 mg/kg/injection, schedule: Q01DX010 (ip), vehicle: carboxymethylcellulose (CMC) 104 % of control | dose: 25.0 mg/kg/injection, schedule: Q01DX010 (ip), vehicle: carboxymethylcellulose (CMC) 104 % of control | dose: 50.0 mg/kg/injection, schedule: Q01DX010 (ip), vehicle: carboxymethylcellulose (CMC) 109 % of control

O=c1nc(Oc2ccccc2)nc2ccc(Cl)nn12
inactive: [1] 105 % of control | [2] 116 % of control

CC(C)C([NH-])=O.CC(C)C([NH-])=O.[Cl][Pt+2][Cl]
inactive: dose: 3.12 mg/kg/injection, schedule: Q01DX009 (ip), vehicle: saline 93 % of control | [10] 101 % of control and 118 % of control | [11] 87 % of control and 117 % of control | [12] 87 % of control and 112 % of control and 123 % of control | dose: 25.0 mg/kg/injection, schedule: Q04DX003 (ip), vehicle: saline 118 % of control | [13] 95 % of control | dose: 50.0 mg/kg/injection, schedule: Q04DX003 (ip), vehicle: saline 116 % of control | dose: 100.0 mg/kg/injection, schedule: Q01DX009 (ip), vehicle: saline 93 % of control and 112 % of control | dose: 100.0 mg/kg/injection, schedule: Q04DX003 (ip), vehicle: saline 114 % of control

N#Cc1cccc(C[P+](c2ccccc2)(c2ccccc2)c2ccccc2)c1
inactive: dose: 6.25 mg/kg/injection, schedule: Q01DX009 (ip), vehicle: Klucel (hydroxypropylcellulose) (HPC) 86 % of control | dose: 12.5 mg/kg/injection, schedule: Q01DX009 (ip), vehicle: Klucel (hydroxypropylcellulose) (HPC) 95 % of control | dose: 17.0 mg/kg/injection, schedule: Q04DX003 (ip), vehicle: Klucel (hydroxypropylcellulose) (HPC) 95 % of control and 104 % of control | [14] 104 % of control | dose: 35.0 mg/kg/injection, schedule: Q01DX009 (ip), vehicle: Klucel (hydroxypropylcellulose) (HPC) 86 % of control | dose: 40.0 mg/kg/injection, schedule: Q04DX003 (ip), vehicle: Klucel (hydroxypropylcellulose) (HPC) 95 % of control and 100 % of control | dose: 52.5 mg/kg/injection, schedule: Q04DX003 (ip), vehicle: Klucel (hydroxypropylcellulose) (HPC) 115 % of control

CN1CCN(CCCN2c3ccccc3Sc3ccc(Cl)cc32)CC1
inactive: [10] 113 % of control | [11] 109 % of control

COc1cc2ccc(C(C)NCC(=O)O)cc2cc1OC (centres undefined)
inactive: [4] 100 % of control | [5] 100 % of control | [6] 104 % of control | [7] 100 % of control | [8] 109 % of control | [9] 109 % of control

Nc1cncc2ncc(-c3ccc(Cl)c(Cl)c3)nc12
inactive: dose: 100.0 mg/kg/injection, schedule: Q01DX001 (ip), vehicle: saline sonified 91 % of control | dose: 200.0 mg/kg/injection, schedule: Q01DX001 (ip), vehicle: saline sonified 100 % of control | dose: 400.0 mg/kg/injection, schedule: Q01DX001 (ip), vehicle: saline sonified 104 % of control

NC(=O)c1ccc(NC(=O)/C=C/C(=O)Nc2ccc(C(N)=O)cn2)nc1
inactive: dose: 0.08 mg/kg/injection, schedule: Q01DX009 (ip), vehicle: saline 115 % of control | dose: 0.17 mg/kg/injection, schedule: Q01DX009 (ip), vehicle: saline 120 % of control | dose: 0.35 mg/kg/injection, schedule: Q01DX009 (ip), vehicle: saline 105 % of control | dose: 0.7 mg/kg/injection, schedule: Q01DX009 (ip), vehicle: saline 103 % of control | dose: 1.4 mg/kg/injection, schedule: Q01DX009 (ip), vehicle: saline 107 % of control | dose: 1.65 mg/kg/injection, schedule: Q01DX009 (ip), vehicle: saline with Tween-80 113 % of control | dose: 2.5 mg/kg/injection, schedule: Q01DX009 (ip), vehicle: saline with Tween-80 117 % of control | dose: 3.75 mg/kg/injection, schedule: Q01DX009 (ip), vehicle: saline with Tween-80 94 % of control | dose: 4.5 mg/kg/injection, schedule: Q04DX003 (ip), vehicle: saline 86 % of control | dose: 5.62 mg/kg/injection, schedule: Q01DX009 (ip), vehicle: saline 104 % of control | dose: 9.0 mg/kg/injection, schedule: Q04DX003 (ip), vehicle: saline 108 % of control | dose: 18.0 mg/kg/injection, schedule: Q04DX003 (ip), vehicle: saline 100 % of control | dose: 26.0 mg/kg/injection, schedule: Q04DX003 (ip), vehicle: saline 112 % of control | dose: 40.0 mg/kg/injection, schedule: Q04DX003 (ip), vehicle: saline 108 % of control

CCCSCCSCCC
inactive: dose: 25.0 mg/kg/injection, schedule: Q04DX003 (ip), vehicle: saline with Tween-80 100 % of control | dose: 50.0 mg/kg/injection, schedule: Q04DX003 (ip), vehicle: saline with Tween-80 109 % of control | dose: 100.0 mg/kg/injection, schedule: Q04DX003 (ip), vehicle: saline with Tween-80 113 % of control

C#CCN(C)Cc1ccccc1
inactive: dose: 50.0 mg/kg/injection, schedule: Q01DX010 (ip), vehicle: saline 95 % of control | dose: 100.0 mg/kg/injection, schedule: Q01DX010 (ip), vehicle: saline 100 % of control | dose: 200.0 mg/kg/injection, schedule: Q01DX010 (ip), vehicle: saline 109 % of control

CC1=CC(=Nc2ccc(N(C)C)cc2)C=CC1=O
inactive: dose: 3.13 mg/kg/injection, schedule: Q01DX009 (ip), vehicle: suspension in saline 98 % of control | dose: 6.25 mg/kg/injection, schedule: Q01DX009 (ip), vehicle: suspension in saline 117 % of control | dose: 12.5 mg/kg/injection, schedule: Q01DX009 (ip), vehicle: suspension in saline 123 % of control | dose: 25.0 mg/kg/injection, schedule: Q01DX009 (ip), vehicle: suspension in saline 117 % of control

COC1(OC)C2CCC1C(Cl)=C2Cl
inactive: dose: 3.13 mg/kg/injection, schedule: Q01DX009 (ip), vehicle: saline 102 % of control | [10] 100 % of control | [12] 109 % of control

COc1ccc(-n2c(=O)c(N=Nc3ccccc3OC)c(O)n(-c3ccccc3C)c2=S)cc1
inactive: dose: 100.0 mg/kg/injection, schedule: Q01DX001 (ip), vehicle: Klucel (hydroxypropylcellulose) (HPC) 111 % of control | dose: 200.0 mg/kg/injection, schedule: Q01DX001 (ip), vehicle: Klucel (hydroxypropylcellulose) (HPC) 100 % of control | dose: 400.0 mg/kg/injection, schedule: Q01DX001 (ip), vehicle: Klucel (hydroxypropylcellulose) (HPC) 88 % of control

N#CC(C#N)=Cc1cccc([N+](=O)[O-])c1
inactive: [14] 90 % of control and 115 % of control | dose: 50.0 mg/kg/injection, schedule: Q04DX003 (ip), vehicle: Klucel (hydroxypropylcellulose) (HPC) 113 % of control | [4] 95 % of control | [5] 113 % of control

C=CC1CCCCC1C=C (centres undefined)
inactive: [12] 107 % of control | [13] 88 % of control
